Test [1] has as its system eel atrium. Kind of test: Effect of OXM in eel atrium (isolated atrium, tension transducer). The conditions noted are these: isolated eel atrium in Ringer's solution, varying OXM concentration. As for the experimental part:
Test Example 1 Effect of OXM in Eel Atrium
An atrium was taken out of an eel, and one end of said atrium was fixed to the bottom of syringe filled with 1.5 ml of Ringer's solution in which was introduced a mixed gas of oxygen and carbon dioxide (95:5), while the other end thereof was connected to a tension transducer (NEC) via a silk thread. 15 μl of an aqueous solution of OXM as diluted with distilled water to have a varying concentration was added to said Ringer's solution, whereupon the tension to be generated by the atrial contraction was measured through the tension transducer. OXM used herein was the product as produced in Example 2. During this measurement, the atrial rate was also counted.

Test [2] concerns plasma insulin concentration. Kind of test: Effect of OXM on plasma insulin concentration of anesthetized rat. The class given is in vivo. The conditions noted are these: anesthetized fasted male SD rats, cumulative administration via jugular vein, blood 5 minutes after each dose; FIG. 3. As to the method: Test Example 2 Effect of OXM on Plasma Insulin Concentration of Anesthetized Rat
Male SD rats (370 to 450 g) were bred with no feed for from 15 to 20 hours, and then Na pentobarbital (50 mg/kg) was intra-abdominally administered thereto. A blood-collecting cannula was inserted into the carotid artery of each rat. A dosed cannula was inserted into the jugular vein of each rat. About 600 μl of blood was collected from each rat before the administration of a test chemical, and 5 minutes after each administration of a varying dose of the said test chemical. OXM obtained in Example 2 was added to physiological saline solution to adjust concentration of 1 mg/ml. The said OXM solution was diluted with a physiological saline solution, the thus-diluted solution was accumulatively administered to each rat. The dose of the solution was 1 ml/kg. The collected blood was centrifuged, and its insulin concentration was measured according to the Insulin-EIA Test (Wako Pure Chemicals).

Some results are limits rather than exact numbers.

Regarding “H-HSQGTFTNDYSKYLETRRAQDFVQWLMNSKRSGGPT-OH [OXM]”, in test [1] (FIG. 1), the “atrial systole (atrial tension)” value is “dose-dependently increases”. For the same substance, the atrial rate result in test [1] (FIG. 2) is “dose-dependently increases”. Also, in test [2], the “dose at which plasma insulin concentration is increased” value is given as not below 0.01 mg/kg.

(Values after patent US5858975A, “Oxyntomodulin peptide having cardiotonic activity and insulin release-bromating activity” (Kyowa Hakko Kogyo Co., Ltd., priority 1994, dated 1999).)
